Results taken from patent publication US7304093B2, “Ketone compounds and compositions for cholesterol management and related uses” (Esperion Therapeutics, Inc., priority 2000, dated 2007).
Read-outs that look alike come from different tables or passages of the source. Marks after values point to notes of the source that are not given here.

System: female obese Zucker rats
Experiment: Serum lipid and glycemic control variables in chow-fed obese female Zucker rats, daily oral gavage for two weeks
Type: in vivo, rat
Conditions: for change in vivo at 100 mg/kg: Rattus norvegicus, Table 9; for Glucose / HDL-C / NEFA / Non-HDL-C / TG / Insulin: serum, mean ± SEM; for Insulin: Tables 10, 11
Summary of the method: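 Female obese Zucker fa rats, 10–12 wk, 400–500 g, chow-fed, dosed daily by oral gavage for 14 days in CMC/Tween 20 or ethanol/PEG-200 vehicle. After a 6-h fast, serum was sampled pre-dose, day 7 and day 14. Triglycerides, total cholesterol, NEFA and β-hydroxybutyrate were measured, plus lipoprotein cholesterol by gel-filtration profiling.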

CC(C)(CO)CCCCC(=O)CCCCC(C)(C)CO [Compound 214c, 1,13-Dihydroxy-2,2,12,12-tetramethyltridecan-7-one]
HDL-C, percent increase (+) or decrease (−) of the pretreatment control value (3 mg/kg daily oral, 1 wk): (−10) percent | HDL-C, percent increase (+) or decrease (−) of the pretreatment control value (3 mg/kg daily oral, 2 wk): (−19) percent | NEFA, percent increase (+) or decrease (−) of the pretreatment control value (3 mg/kg daily oral, 2 wk): (+145) percent | HDL-C, percent increase (+) or decrease (−) of the pretreatment control value (10 mg/kg daily oral, 1 wk): (+113) percent | NEFA, percent increase (+) or decrease (−) of the pretreatment control value (10 mg/kg daily oral, 1 wk): (−18) percent | TG, percent increase (+) or decrease (−) of the pretreatment control value (10 mg/kg daily oral, 1 wk): (−23) percent | HDL-C, percent increase (+) or decrease (−) of the pretreatment control value (10 mg/kg daily oral, 2 wk): (+115) percent | HDL-C, percent increase (+) or decrease (−) of the pretreatment control value (30 mg/kg daily oral, 1 wk): (+140) percent | NEFA, percent increase (+) or decrease (−) of the pretreatment control value (30 mg/kg daily oral, 1 wk): (−21) percent | TG, percent increase (+) or decrease (−) of the pretreatment control value (30 mg/kg daily oral, 1 wk): (−27) percent | HDL-C, percent increase (+) or decrease (−) of the pretreatment control value (30 mg/kg daily oral, 2 wk): (+142) percent | Non-HDL-C, percent increase (+) or decrease (−) of the pretreatment control value (30 mg/kg daily oral, 2 wk): (+127) percent | HDL-C, percent increase (+) or decrease (−) of the pretreatment control value (100 mg/kg daily oral, 1 wk): (+173) percent | NEFA, percent increase (+) or decrease (−) of the pretreatment control value (100 mg/kg daily oral, 1 wk): (−30) percent | TG, percent increase (+) or decrease (−) of the pretreatment control value (100 mg/kg daily oral, 1 wk): (−54) percent | HDL-C, percent increase (+) or decrease (−) of the pretreatment control value (100 mg/kg daily oral, 2 wk): (+176) percent | NEFA, percent increase (+) or decrease (−) of the pretreatment control value (100 mg/kg daily oral, 2 wk): (−33) percent | TG, percent increase (+) or decrease (−) of the pretreatment control value (100 mg/kg daily oral, 2 wk): (−33) percent | change in vivo at 100 mg/kg (168 h, 100 mg/kg daily oral, 1 wk, read-out: HDL-Cholesterol, Percent Change from Pre-Treatment): 110% | change in vivo at 100 mg/kg (168 h, 100 mg/kg daily oral, 1 wk, read-out: NonHDL-Cholesterol, Percent Change from Pre-Treatment): -23% | change in vivo at 100 mg/kg (168 h, 100 mg/kg daily oral, 1 wk, read-out: TG, Percent Change from Pre-Treatment): -54% | change in vivo at 100 mg/kg (336 h, 100 mg/kg daily oral, 2 wk, read-out: HDL-Cholesterol, Percent Change from Pre-Treatment): 126% | change in vivo at 100 mg/kg (336 h, 100 mg/kg daily oral, 2 wk, read-out: NonHDL-Cholesterol, Percent Change from Pre-Treatment): -10% | change in vivo at 100 mg/kg (336 h, 100 mg/kg daily oral, 2 wk, read-out: TG, Percent Change from Pre-Treatment): -29% | Glucose (3 mg/kg daily oral, 1 wk): 106 ± 2 mg/dL | HDL-C (3 mg/kg daily oral, 1 wk): 43 ± 4^a mg/dl | NEFA (3 mg/kg daily oral, 1 wk): 1.2 ± 0.05 mg/dL | Non-HDL-C (3 mg/kg daily oral, 1 wk): 25 ± 3 mg/dL | TG (3 mg/kg daily oral, 1 wk): 800 ± 75 mg/dL | Insulin (3 mg/kg daily oral, 1 wk): 7.5 ± 0.8 ng/mL | Glucose (3 mg/kg daily oral, 2 wk): 103 ± 3 mg/dL | HDL-C (3 mg/kg daily oral, 2 wk): 39 ± 4^a mg/dl | NEFA (3 mg/kg daily oral, 2 wk): 1.6 ± 0.13 | Non-HDL-C (3 mg/kg daily oral, 2 wk): 22 ± 2 mg/dL | TG (3 mg/kg daily oral, 2 wk): 781 ± 65 mg/dL | Insulin (3 mg/kg daily oral, 2 wk): 7.8 ± 0.6 ng/mL | Glucose (10 mg/kg daily oral, 1 wk): 110 ± 2 mg/dL | HDL-C (10 mg/kg daily oral, 1 wk): 52 ± 3^a mg/dl | NEFA (10 mg/kg daily oral, 1 wk): 0.98 ± 0.08 | Non-HDL-C (10 mg/kg daily oral, 1 wk): 21 ± 2 mg/dL | TG (10 mg/kg daily oral, 1 wk): 602 ± 37^a mg/dl | Insulin (10 mg/kg daily oral, 1 wk): 7.5 ± 0.4 ng/mL | Glucose (10 mg/kg daily oral, 2 wk): 110 ± 3 mg/dL | HDL-C (10 mg/kg daily oral, 2 wk): 53 ± 4^a mg/dl | NEFA (10 mg/kg daily oral, 2 wk): 1.0 ± 0.10 mg/dL | Non-HDL-C (10 mg/kg daily oral, 2 wk): 25 ± 2 mg/dL | TG (10 mg/kg daily oral, 2 wk): 730 ± 52 mg/dL | Insulin (10 mg/kg daily oral, 2 wk): 7.8 ± 0.5 ng/mL | Glucose (30 mg/kg daily oral, 1 wk): 112 ± 13 mg/dL | HDL-C (30 mg/kg daily oral, 1 wk): 60 ± 3^a mg/dl | NEFA (30 mg/kg daily oral, 1 wk): 1.1 ± 0.05 | Non-HDL-C (30 mg/kg daily oral, 1 wk): 28 ± 2 mg/dL | TG (30 mg/kg daily oral, 1 wk): 726 ± 49^a mg/dl | Insulin (30 mg/kg daily oral, 1 wk): 0.091 ± 0.006 ng/mL | Glucose (30 mg/kg daily oral, 2 wk): 120 ± 3 mg/dL | HDL-C (30 mg/kg daily oral, 2 wk): 61 ± 4^a mg/dl | NEFA (30 mg/kg daily oral, 2 wk): 1.2 ± 0.10 mg/dL | Non-HDL-C (30 mg/kg daily oral, 2 wk): 38 ± 5^a mg/dl | TG (30 mg/kg daily oral, 2 wk): 985 ± 110 mg/dL | Insulin (30 mg/kg daily oral, 2 wk): 0.098 ± 0.007 ng/mL | Glucose (100 mg/kg daily oral, 1 wk): 120 ± 5 mg/dL | HDL-C (100 mg/kg daily oral, 1 wk): 78 ± 5^a mg/dl | NEFA (100 mg/kg daily oral, 1 wk): 0.98 ± 0.04 | Non-HDL-C (100 mg/kg daily oral, 1 wk): 23 ± 1 mg/dL | TG (100 mg/kg daily oral, 1 wk): 485 ± 29^a mg/dl | Insulin (100 mg/kg daily oral, 1 wk): 0.109 ± 0.01 ng/mL | Glucose (100 mg/kg daily oral, 2 wk): 118 ± 3 mg/dL | HDL-C (100 mg/kg daily oral, 2 wk): 79 ± 6^a mg/dl | NEFA (100 mg/kg daily oral, 2 wk): 0.94 ± 0.04 | Non-HDL-C (100 mg/kg daily oral, 2 wk): 32 ± 2 mg/dL | TG (100 mg/kg daily oral, 2 wk): 702 ± 53^a mg/dl | Insulin (100 mg/kg daily oral, 2 wk): 0.11 ± 0.009 ng/mL
